Reference: patent publication US20210371455A1, “METHODS AND COMPOSITIONS COMPRISING REDUCED LEVEL OF HOST CELL PROTEINS” (Regeneron Pharmaceuticals, Inc., priority 2019, published 2021)

Legend:
[1] = biological target: T1, LPL (Homo sapiens, UniProt P06858); test: PS-20 remaining with LPL, with and without Lalistat-2; type: biochemical; settings: 0.05% PS-20 and 10 μg/mL LPL; t=0, 8 days and 15 days
T1 sequence (P06858 28-475): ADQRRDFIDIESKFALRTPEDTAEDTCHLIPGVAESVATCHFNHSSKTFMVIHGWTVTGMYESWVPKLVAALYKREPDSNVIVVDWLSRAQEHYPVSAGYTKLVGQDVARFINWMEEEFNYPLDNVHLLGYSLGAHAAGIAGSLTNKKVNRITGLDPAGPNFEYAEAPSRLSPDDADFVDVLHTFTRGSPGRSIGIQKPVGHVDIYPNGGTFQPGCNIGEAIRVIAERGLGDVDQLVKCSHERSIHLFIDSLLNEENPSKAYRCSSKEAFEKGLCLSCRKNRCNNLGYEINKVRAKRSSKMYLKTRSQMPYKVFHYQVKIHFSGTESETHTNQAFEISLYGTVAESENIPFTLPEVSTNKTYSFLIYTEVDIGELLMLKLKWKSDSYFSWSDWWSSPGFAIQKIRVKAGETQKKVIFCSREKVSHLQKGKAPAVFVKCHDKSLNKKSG
Procedure: Thus, addition of Lalistat only causes inhibition of LAL […]. […] The incubated samples were analyzed at t=0, 8 days and 15 days. […] Therefore, if lalistat2 can inhibit lipase activity in mAbs completely, then it means the LPL detected from mAbs were not active or abundance are too low to degrade PS20. The PS20 degradation seen from recombinant LPL may either due to the only LPL in high concentration can degrade PS20, or due to unexpected impurities presented in the recombinant LPL.

[2] = biological target: T2, lysosomal acid lipase (LAL) (Homo sapiens, UniProt P38571); settings: cited from earlier work
T2 sequence (P38571 77-399): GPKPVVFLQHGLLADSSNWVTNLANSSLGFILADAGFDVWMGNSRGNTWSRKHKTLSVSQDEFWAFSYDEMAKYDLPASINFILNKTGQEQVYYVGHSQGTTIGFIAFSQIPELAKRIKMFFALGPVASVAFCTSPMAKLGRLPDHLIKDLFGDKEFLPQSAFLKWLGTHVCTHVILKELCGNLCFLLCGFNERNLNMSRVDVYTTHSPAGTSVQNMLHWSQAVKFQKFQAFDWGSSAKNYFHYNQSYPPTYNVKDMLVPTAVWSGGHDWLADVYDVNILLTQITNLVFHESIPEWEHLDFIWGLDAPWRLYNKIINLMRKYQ

[3] = biological target: T3, bovine milk lipoprotein lipase (Bos taurus, UniProt P11151); settings: cited from earlier work
T3 construct: host or cells: bovine milk
T3 sequence (P11151 29-478): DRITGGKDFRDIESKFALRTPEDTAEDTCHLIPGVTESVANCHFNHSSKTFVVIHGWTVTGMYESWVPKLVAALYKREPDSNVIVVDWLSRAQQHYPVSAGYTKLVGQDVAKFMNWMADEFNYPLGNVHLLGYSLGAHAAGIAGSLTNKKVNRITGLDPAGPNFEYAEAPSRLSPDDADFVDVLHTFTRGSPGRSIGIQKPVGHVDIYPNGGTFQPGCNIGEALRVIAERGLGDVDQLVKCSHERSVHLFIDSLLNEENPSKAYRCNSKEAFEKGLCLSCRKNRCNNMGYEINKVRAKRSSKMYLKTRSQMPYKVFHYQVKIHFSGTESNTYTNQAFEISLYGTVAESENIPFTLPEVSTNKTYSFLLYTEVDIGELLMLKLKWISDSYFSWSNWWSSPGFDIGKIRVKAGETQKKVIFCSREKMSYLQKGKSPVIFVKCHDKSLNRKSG

[4] = biological target: T4, LAL (Cricetulus griseus, UniProt G3HQY6); test: PS-20 remaining with LAL, with and without Lalistat-2; type: biochemical; design: made in house; host or cells: CHO cells; settings: 0.05% PS-20 and 5 μg/mL LAL; t=0, 8 days and 15 days
T4 sequence (G3HQY6 19-397): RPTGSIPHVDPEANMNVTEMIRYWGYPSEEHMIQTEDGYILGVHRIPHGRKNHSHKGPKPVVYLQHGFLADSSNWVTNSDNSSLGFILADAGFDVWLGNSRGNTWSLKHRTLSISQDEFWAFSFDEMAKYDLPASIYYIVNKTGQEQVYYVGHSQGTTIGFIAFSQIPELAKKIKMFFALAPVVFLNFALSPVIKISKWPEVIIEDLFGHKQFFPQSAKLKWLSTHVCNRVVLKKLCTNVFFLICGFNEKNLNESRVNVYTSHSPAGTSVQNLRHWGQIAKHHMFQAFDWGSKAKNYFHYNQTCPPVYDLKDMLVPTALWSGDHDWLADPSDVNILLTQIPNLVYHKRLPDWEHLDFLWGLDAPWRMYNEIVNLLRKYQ
Procedure: The incubated samples were analyzed at t=0, 8 days and 15 days.

[5] = biological target: T4, LAL; test: PS-20 remaining in mAb formulation with and without Lalistat-2; type: biochemical; design: endogenous in cells; host or cells: mAb production cells (CHO inferred); settings: mAb-15 comprising 0.05% PS-20, 37° C., 15 days, 0.1 M Lalistat-2
Procedure: mAb-15 comprising 0.05% PS-20 was incubated at 37° C. for 15 days in presence and absence of 0.1 M Lalistat-2. The incubated samples were analyzed at t=0, 8 days and […].

inhibition of LPL's activity (PS-20 remaining) [1]: cannot inhibit LPL's activity
degradation of PS-20 in sample incubated with Lalistat-2 [4]: almost no degradation of PS-20
degradation of PS-20 in mAb formulation incubated with Lalistat-2 [5]: almost no degradation of PS-20
Structure (SMILES): O=C(Oc1nsnc1N1CCCCC1)N1CCCCC1 [Lalistat 2]
IC50 [2]: 0.152 µM
inhibition of bovine milk lipoprotein lipase [3]: does not exhibit inhibition
